Here are results for one molecule from US20170217982A1, “Compound isolated from Pseudolysimachion rotundum var. subintegrum, the composition comprising the same for treating allergic disease, inflammatory disease, asthma or chronic obstructive pulmonary disease and the use thereof” (YUNGJIN PHARMACEUTICAL CO., LTD, priority 2014, published 2017).

This experiment concerns COPD induced mice. Put plainly: Anti-COPD effect in cigarette smoke + LPS COPD mouse model. The class given is in vivo, C57BL/6N mouse. Particulars: 10 mg/kg p.o. The protocol:
In order to determine the anti-COPD effect of inventive compounds in COPD animal model, following test was performed by using COPD induced mice as disclosed in the literature (Bhaysar, T. et al., J. Chronic Obstr. […]. Dis., 2008, 3, 477-481). Specific pathogen-free male C57BL/6N mouse (about 22-24 g), aged 6 weeks, which were routinely screened serologically for relevant respiratory pathogens, were purchased from Koatech Co. (koatech.co.kr, Seoul, Korea) and bred allowing to access freely to feed (antibiotic free, Samyang Oil & Feed Corp., Korea) and water in breeding room controlling the temperature of 22±2° C., and humidity of 55±15% at the light-dark cycle for 12 hours and acclimated with the experimental environment for 1 week. 2 kinds of test samples, […] ingredient: Roflumilast, 10 mg/kg) were dissolved in 0.5% sodium carboxymethyl cellulose ([…], Sigma-Aldrich, USA) and used as test samples. KS534, and Rolflumilast (ROF 11-492, HETERO, India) were orally administrated to the mice, 1 hour before prior the intratracheal instillation (i.t.). 3R4F Kentuchy Reference Cigarettes ([…], USA) was used as a standard cigarette for generating a cigarette smoke. The cigarette containing 9.4 mg of tar, 11 mg of TPM (total particle matter) and 12 mg of carbon monooxide per piece, was used after harmonizing with the temperature of 22±1° C. and humidity of 60±2% after opening for 48-72 hrs. The exposure of cigarette smoke was performed by using a cigarette smoke generator (DBL Co. Ltd., dhbiolink.com, Korea). The mice were divided into five groups: normal (NC), COPD (cigarette smoke with LPS intranasal instillation), Rof (10 mg/kg of roflumilast, p.o.+cigarette smoke with LPS intranasal instillation), and KS534-15 and 30 (15 mg/kg and 30 mg/kg of KS534, p.o.+cigarette smoke with LPS instillation, respectively). Exposure of cigarette smoke (one puff/min, 35 ml puff volume over 2 s, every 60 s, 8 cigarettes per day) was conducted using a cigarette smoke generator. The mice received 1 h of cigarette smoke exposure in an exposure chamber (50 cm×30 cm×30 cm) for 3 days. Roflumilast and piscroside C were administered to mice by oral lavage 1 h before cigarette smoke exposure for 3 days. LPS was intranasally instilled ([…] dissolved in 50 μL distilled water) under anesthesia 1 h after the final exposure to cigarette smoke. After the end of experiment, the blood, BALF, and pneumonocyte of each rat were isolated and collected to test. After finishing the experiment, rats were anaesthetized with Zoleti150 (3VX9, Virbac, France, p.o) and the blood was delivered through caudal veins. In order to isolate BALF from lung, the bronchus of right lung was ligated with suture and then performed to tracheostomy. IV-use catheter (16 GA, 3S-Cath, Dukwoo, Korea) was put into the bronchus, and both of bronchus and catheter (16 GA, 3S-Cath, Dukwoo, Korea) were fixed with suture. The injector containing 1 ml of DPBS 0.7 (Dubecco's phosphate-buffered saline, Invitrogen, USA) was connected thereto and DPBS was forced to circulate three times to isolate BALF. The right lung ligated with suture was isolated, fixed with 10% neutral formalin solution, and the remaining lung tissue was reserved in refrigerator at -70° C. The isolated BALF was centrifuged for 15 mins at 1500 rpm to prepare cell pellet and the supernatant was reserved in refrigerator at -70° C. for cytokine analysis. The cell pellet was suspended in DPBS, and the cell was attached to a slide glass using by cytospin centrifuge (CS03270047, Hanil, Korea). Diff-Quik staining (ZS1003, Sysmex, Japan) was performed and the cell was observed by optical microscopy (DM1000, Leica, German) to count the number of immunocyte in each test sample. The level of ROS in BALF isolated from the mice was determined by DCF-DA (dihydrodo chloro fluoresce indiacetate, 35854, Sigma-Aldrich, USA) and the final concentration of DCF-DA was adjusted to 20 μm in 200 μL to incubate 30 mins. […]

As to `O=C(Nc1c(Cl)cncc1Cl)c1ccc(OC(F)F)c(OCC2CC2)c1` [Roflumilast, reference compound], under “COPD mice”, the “level of proteins in BALF compared with COPD induced group” value is “significant reduction”, the “reduced level of ROS in BALF comparing with COPD induced group” value is recorded as “about 22.2%” and the “reduced level of neutrophils in BALF comparing with COPD induced group” value was “about 21.1%”. For the setting “COPD mice (FIG. 14)”, the “invasion of the inflamed cells in lung tissue (histology)” value is reported as “significantly reduced”. In addition, for the setting “COPD mice, ELISA”, the “level of IL-6 in BALF compared with COPD induced group” value is given as “significant reduction” and the “level of TNF-alpha in BALF compared with COPD induced group” value is given as “significant reduction”.
